Source: patent publication US9321760B2 (Merck Patent GmbH, priority 2011, dated 2016)

Molecular target: P70S6K (T412E mutant) (Homo sapiens (Human), UniProt P23443, T412E)
Test: P70S6K enzyme assay
Format: biochemical
Conditions: 3 nM P70S6K T412E mutant, 24 μM ATP, 1 μM FITC-AHA-AKRRRLSSLRA-OH substrate peptide, 90 min at 25° C.
Procedure, shortened: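 IC50s come from mobility-shift separation of phospho-product from FITC-AHA-AKRRRLSSLRA-OH substrate (1 μM) after the reaction was quenched with 10 mM EDTA. The reaction used 3 nM T412E-mutant enzyme and 24 μM ATP, running 90 min at 25° C in 100 mM Hepes pH 7.5 buffer.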

P70S6K (T412E mutant), sequence (P23443 whole entry T412E): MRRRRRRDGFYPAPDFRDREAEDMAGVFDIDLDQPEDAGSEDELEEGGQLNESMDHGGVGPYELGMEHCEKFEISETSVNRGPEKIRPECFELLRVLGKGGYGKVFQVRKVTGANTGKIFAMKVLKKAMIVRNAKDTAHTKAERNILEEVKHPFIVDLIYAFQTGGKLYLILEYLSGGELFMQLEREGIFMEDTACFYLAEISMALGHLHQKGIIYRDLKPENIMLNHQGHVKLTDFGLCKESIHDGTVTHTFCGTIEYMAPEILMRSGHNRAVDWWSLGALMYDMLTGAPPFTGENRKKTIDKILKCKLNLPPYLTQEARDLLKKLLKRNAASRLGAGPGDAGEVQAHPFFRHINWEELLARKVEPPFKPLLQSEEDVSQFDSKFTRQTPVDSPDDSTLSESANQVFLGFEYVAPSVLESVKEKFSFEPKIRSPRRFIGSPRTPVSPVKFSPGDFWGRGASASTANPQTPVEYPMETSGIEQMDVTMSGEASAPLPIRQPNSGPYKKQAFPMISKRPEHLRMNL

IC50 [nM] | SMILES
100 | NCC(c1ccc(C(F)(F)F)cc1)N1CCN(c2ncnc(N)c2-c2cnoc2)CC1 (centres unmarked) [Example 38, 6-(4-(2-amino-1-(4-(trifluoromethyl)phenyl)ethyl)piperazin-1-yl)-5-(isoxazol-4-yl)pyrimidin-4-amine]
1.7 | CN(C)C[C@@H](c1ccc(C(F)(F)F)cc1)N1CCN(c2ncnc(N)c2-c2ccc(F)cc2)CC1 [Example 17, (R)-6-(4-(2-(dimethylamino)-1-(4-(trifluoromethyl)phenyl)ethyl)piperazin-1-yl)-5-(4-fluorophenyl)pyrimidin-4-amine]
4.8 | Nc1ncnc(N2CCC(N)(CNC(=O)c3ccc(F)cc3F)C2)c1-c1ccc(F)cc1 (centres unmarked) [Example 198, N-{3-Amino-1-[6-amino-5-(4-fluoro-phenyl)-pyrimidin-4-yl]-pyrrolidin-3-ylmethyl}-2,4-difluoro-benzamide]
9.5 | COc1ccc(-c2c(N)ncnc2N2CCC(N)(CNC(=O)c3ccc(F)cc3F)C2)cn1 (centres unmarked) [Example 201, N-{3-Amino-1-[6-amino-5-(6-methoxy-pyridin-3-yl)-pyrimidin-4-yl]-pyrrolidin-3-ylmethyl}-2,4-difluoro-benzamide]
1400 | Nc1ncnc(N2CCN(C(CN3CCC3)c3ccc(Cl)c(C(F)(F)F)c3)CC2)c1-c1cn[nH]c1 (centres unmarked) [Example 132, 6-{4-[2-Azetidin-1-yl-1-(4-chloro-3-trifluoromethyl-phenyl)-ethyl]-piperazin-1-yl}-5-(1H-pyrazol-4-yl)-pyrimidin-4-ylamine]
22 | NC[C@H](c1ccc(C(F)(F)F)cc1)C1CCN(c2ncnc(N)c2-c2cn[nH]c2)CC1 (single isomer, unassigned) [Example 56]
1.3 | NCC(c1ccc(Cl)cc1)N1CCN(c2ncnc(N)c2-c2ccc(F)cc2)CC1 (centres unmarked) [Example 163, 6-{4-[2-Amino-1-(4-chloro-phenyl)-ethyl]-piperazin-1-yl}-5-(4-fluoro-phenyl)-pyrimidin-4-ylamine]
3400 | Nc1ncnc(N2CCN(C(CN3CCC3)c3cccc(F)c3F)CC2)c1-c1cn[nH]c1 (centres unmarked) [Example 124, 6-{4-[2-Azetidin-1-yl-1-(2,3-difluoro-phenyl)-ethyl]-piperazin-1-yl}-5-(1H-pyrazol-4-yl)-pyrimidin-4-ylamine]
820 | NC(=O)C[C@H](NC(=O)C1(N)CCN(c2ncnc(N)c2Cl)CC1)c1ccc(Cl)cc1 [Example 217, 4-Amino-1-(6-amino-5-chloro-pyrimidin-4-yl)-piperidine-4-carboxylic acid [(S)-2-carbamoyl-1-(4-chloro-phenyl)ethyl]-amide]
110 | N#CC(c1ccc(Cl)nc1)N1CCN(c2ncnc(N)c2-c2ccc(F)cc2)CC1 (centres unmarked) [Example 173, {4-[6-Amino-5-(4-fluoro-phenyl)-pyrimidin-4-yl]-piperazin-1-yl}-(6-chloro-pyridin-3-yl)-acetonitrile]
900 | Nc1ncnc(N2CCC(N)(C(=O)N[C@@H](CCO)c3ccc(F)cc3)CC2)c1Cl [Example 236, 4-Amino-1-(6-amino-5-chloro-pyrimidin-4-yl)-piperidine-4-carboxylic acid [(S)-1-(4-fluoro-phenyl)-3-hydroxy-propyl]-amide]
5000 | COC[C@H](NC(=O)C1(N)CCN(c2ncnc(N)c2C(N)=O)CC1)c1ccc(Cl)cc1 [Example 246, 4-Amino-6-{4-amino-4-[(R)-1-(4-chloro-phenyl)-2-methoxy-ethylcarbamoyl]-piperidin-1-yl}-pyrimidine-5-carboxylic acid amide]
3.4 | NCC(c1ccc(C(F)(F)F)cc1)N1CCN(c2ncnc(N)c2C2=CCCC2)CC1 (centres unmarked) [Example 25, 6-(4-(2-amino-1-(4-(trifluoromethyl)phenyl)ethyl)piperazin-1-yl)-5-(cyclopent-1-en-1-yl)pyrimidin-4-amine]
3600 | Nc1ncnc(N2CCN(C(CN3CCC3)c3ccc(F)c(Cl)c3)CC2)c1-c1cn[nH]c1 (centres unmarked) [Example 135, 6-{4-[2-Azetidin-1-yl-1-(3-chloro-4-fluoro-phenyl)-ethyl]-piperazin-1-yl}-5-(1H-pyrazol-4-yl)-pyrimidin-4-ylamine]
280 | Cc1ccc([C@H](CCO)NC(=O)C2(N)CCN(c3ncnc(N)c3C#N)CC2)cc1 [Example 227, 4-Amino-1-(6-amino-5-cyano-pyrimidin-4-yl)-piperidine-4-carboxylic acid ((S)-3-hydroxy-1-p-tolyl-propyl)-amide]
1000 | C=Cc1c(N)ncnc1N1CCC(C(O)c2ccc(F)cc2)CC1 (centres unmarked) [Example 141, 1-6-amino-5-(vinylpyrimidin-4-yl)piperidin-4-yl-4-(fluorophenyl)methanol]
> 1000 | Nc1ncnc(N2CCN(C(CN3CCCCC3)c3ccc(F)cc3)CC2)c1Br (centres unmarked) [Example 72, 5-Bromo-6{4-[1-(4-fluoro-phenyl)-2-piperidin-1-yl-ethyl]-piperazin-1-yl}-pyrimidin-4-ylamine]
2.6 | NC[C@@H](c1ccc(Cl)nc1)N1CCN(c2ncnc(N)c2-c2ccc(F)cc2)CC1 [Example 175, 6-{4-[(R)-2-Amino-1-(6-chloro-pyridin-3-yl)-ethyl]-piperazin-1-yl}-5-(4-fluoro-phenyl)-pyrimidin-4-ylamine]
57 | NCC(c1ccc(C(F)(F)F)cc1)N1CCN(c2ncnc(N)c2OCc2ccccc2)CC1 (centres unmarked) [Example 34, 6-(4-(2-amino-1-(4-(trifluoromethyl)phenyl)ethyl)piperazin-1-yl)-5-(benzyloxy)pyrimidin-4-amine]
> 1000 | Nc1ncnc(N2CCN(C(CN3CCCC3)c3cccc(C(F)(F)F)c3)CC2)c1Br (centres unmarked) [Example 69, 5-Bromo-6{4-[1-(3-trifluoromethyl-phenyl)-2-pyrrolidin-1-yl-ethyl]-piperazin-1-yl}-pyrimidin-4-ylamine]
380 | COc1ccc([C@H](CCO)NC(=O)C2(N)CCN(c3ncnc(N)c3Cl)CC2)cc1 [Example 238, 4-Amino-1-(6-amino-5-chloro-pyrimidin-4-yl)-piperidine-4-carboxylic acid [(S)-3-hydroxy-1-(4-methoxy-phenyl)-propyl]-amide]
2400 | CC[C@H](NC(=O)C1(N)CCN(c2ncnc(N)c2C(N)=O)CC1)c1ccc(Cl)cc1 [Example 245, 4-Amino-6-{4-amino-4-[(S)-1-(4-chloro-phenyl)-propylcarbamoyl]-piperidin-1-yl}-pyrimidine-5-carboxylic acid amide]
> 1000 | NCC(c1ccc(C(F)(F)F)cc1)N1CCN(c2ncnc(N)c2O)CC1 (centres unmarked) [Example 35, 4-amino-6-(4-(2-amino-1-(4-(trifluoromethyl)phenyl)ethyl)piperazin-1-yl) pyrimidin-5-ol]
130 | N#CC(c1ccc(Cl)c(Cl)c1)N1CCN(c2ncnc(N)c2-c2ccc(F)cc2)CC1 (centres unmarked) [Example 156, {4-[6-Amino-5-(4-fluoro-phenyl)-pyrimidin-4-yl]-piperazin-1-yl}-(3,4-dichloro-phenyl)-acetonitrile]
3700 | Nc1ncnc(N2CCN([C@H](CN3CCC3)c3ccc4c(c3)OCCO4)CC2)c1-c1cn[nH]c1 [Example 108, 6-{4-[(S)-2-Azetidin-1-yl-1-(2,3-dihydro-benzo[1,4]dioxin-6-yl)-ethyl]-piperazin-1-yl}-5-(1H-pyrazol-4-yl)-pyrimidin-4-ylamine]
900 | Nc1ncnc(N2CCN(C(CN3CCC3)c3ccc(Cl)c(F)c3)CC2)c1-c1cn[nH]c1 (centres unmarked) [Example 121, 6-{4-[2-Azetidin-1-yl-1-(4-chloro-3-fluoro-phenyl)-ethyl]-piperazin-1-yl}-5-(1H-pyrazol-4-yl)-pyrimidin-4-ylamine]
